This passage reports IC50 results from patent US20260356856A1, “KRAS G12S AND G12C INHIBITORS” (MIRATI THERAPEUTICS, INC., priority 2023, published 2026).

Assay [1] has as its target T1, KRas-mediated phosphorylation of ERK in A549 cells (Homo sapiens, UniProt P01116, G12S).
T1 construct: pERK HTRF read-out
Nature of the assay: Inhibition of KRas-mediated phosphorylation of ERK (HTRF), A549 cells. Format: cell-based. The note with it: HTRF pERK, 3 h incubation.

The target of assay [2] is T2, KRas-mediated phosphorylation of ERK in H358 cells (Homo sapiens, UniProt P01116, G12C).
T2 construct: pERK HTRF read-out
Nature of the assay: Inhibition of KRas-mediated phosphorylation of ERK (HTRF), H358 cells. Format: cell-based. The note with it: HTRF pERK, 3 h incubation. (In TR-FRET formats the signal depends on donor and acceptor labels being close together.)

Assay [3] addresses T3, KRas-mediated phosphorylation of ERK in MKN1 cells (Homo sapiens, UniProt P01116).
T3 construct: pERK HTRF read-out
Nature of the assay: Inhibition of KRas-mediated phosphorylation of ERK (HTRF), MKN1 cells. The note with it: MKN1 cells (KRas WT); HTRF pERK; 3 h incubation. It is filed as cell-based. The procedure: Inhibition of KRas Phosphorylation of ERK (HTRF) by Exemplary Compounds of Formula (Ia) or (Ib)
Cisbio HTRF Advanced pERK Assay Catalog #64AERPEH • Cells: MKN1, PSN1 • Procedure: • 1. Day 1: Seed 6,000 cells/well −25 μl/well in 384-well white solid bottom plate; RPM1_10% FBS. Incubate overnight at 37 °C/5% CO2. • 2.

Assay [4] concerns the target T4, KRas WT (Homo sapiens, UniProt P01116).
T4 construct: Biotinylated KRas (corresponding to amino acids 1-169, produced at Accelegan Inc.); biotin (biotinylated); purchased Accelegan Inc
Nature of the assay: KRas binding assay, TR-FRET displacement of Cy5 labelled tracer. The note with it: 60-minute incubation at room temperature, 1% DMSO, pH 7.5. The method in brief: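 TR-FRET tracer-displacement readout after 60 min at room temperature, using KRas residues 1-169 (biotinylated) with terbium streptavidin and a Cy5 tracer. Buffer: 50 mM HEPES pH 7.5, 5 mM MgCl2, 0.005% Tween-20, 1 mM DTT, 1% DMSO final. IC50 from 4-parameter fit of POC data.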

The target in assay [5] is T5, KRas G12S (Homo sapiens, UniProt P01116, G12S).
T5 construct: Biotinylated KRas (corresponding to amino acids 1-169, produced at Accelegan Inc.); biotin (biotinylated); purchased Accelegan Inc
Described as above. The note with it: 60-minute incubation at room temperature, 1% DMSO, pH 7.5. The gist of the method:
(§1)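 Displacement measured on KRas residues 1-169 (biotinylated, terbium-streptavidin labelled); 1 h, RT; 1% DMSO final; HEPES pH 7.5 / MgCl2 / Tween-20 / DTT. IC50: 4-parameter fit.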

The target of assay [6] is T6, KRas G12C (Homo sapiens, UniProt P01116, G12C).
T6 construct: Biotinylated KRas (corresponding to amino acids 1-169, produced at Accelegan Inc.); biotin (biotinylated); purchased Accelegan Inc
The description is as above. To be noted: 60-minute incubation at room temperature, 1% DMSO, pH 7.5. The gist of the method:
as §1

T2 sequence (P01116 1-188 isoform P01116-2 G12C): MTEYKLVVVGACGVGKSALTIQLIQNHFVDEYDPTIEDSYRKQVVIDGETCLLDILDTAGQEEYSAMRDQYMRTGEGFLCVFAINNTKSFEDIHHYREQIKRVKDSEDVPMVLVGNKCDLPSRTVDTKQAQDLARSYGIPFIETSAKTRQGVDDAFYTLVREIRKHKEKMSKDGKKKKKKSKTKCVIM
T1 sequence (P01116 1-188 isoform P01116-2 G12S): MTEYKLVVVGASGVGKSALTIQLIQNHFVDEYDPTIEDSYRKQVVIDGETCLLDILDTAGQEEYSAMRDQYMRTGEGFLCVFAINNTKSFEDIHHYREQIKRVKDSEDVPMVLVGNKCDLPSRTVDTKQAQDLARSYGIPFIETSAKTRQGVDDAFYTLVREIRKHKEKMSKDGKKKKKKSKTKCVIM
T4 sequence (P01116 1-169 isoform P01116-2): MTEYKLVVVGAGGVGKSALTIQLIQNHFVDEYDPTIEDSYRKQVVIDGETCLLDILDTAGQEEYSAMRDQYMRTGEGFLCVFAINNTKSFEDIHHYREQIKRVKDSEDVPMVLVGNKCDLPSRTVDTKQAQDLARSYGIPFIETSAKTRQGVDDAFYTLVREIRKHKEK
T5 sequence (P01116 1-169 isoform P01116-2 G12S): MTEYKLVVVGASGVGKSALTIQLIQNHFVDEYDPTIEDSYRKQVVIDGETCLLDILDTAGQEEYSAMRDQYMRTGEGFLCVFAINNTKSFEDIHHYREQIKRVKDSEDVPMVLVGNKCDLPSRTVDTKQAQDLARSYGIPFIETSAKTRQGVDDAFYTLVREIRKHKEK
T3 sequence (P01116 1-188 isoform P01116-2): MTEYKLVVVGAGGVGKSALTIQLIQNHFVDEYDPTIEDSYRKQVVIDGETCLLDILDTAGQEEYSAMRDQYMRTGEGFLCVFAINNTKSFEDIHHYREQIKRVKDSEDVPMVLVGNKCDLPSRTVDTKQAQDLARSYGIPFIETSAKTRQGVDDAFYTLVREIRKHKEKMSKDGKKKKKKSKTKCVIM
T6 sequence (P01116 1-169 isoform P01116-2 G12C): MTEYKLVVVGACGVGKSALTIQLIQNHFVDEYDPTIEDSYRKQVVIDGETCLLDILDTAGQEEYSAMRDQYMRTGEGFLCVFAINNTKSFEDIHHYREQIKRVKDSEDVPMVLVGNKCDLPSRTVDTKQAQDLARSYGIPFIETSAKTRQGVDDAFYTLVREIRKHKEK

Broadly, the IC50 is the concentration at which inhibition is half-maximal. Read a high IC50 as a need for much substance. On to `CCc1c(F)ccc2cc(O)cc(-c3ncc4c(N5CCC(C(=O)n6ccc(C(C)C)n6)CC5)nc(OC[C@@]56CCCN5C[C@H](F)C6)nc4c3F)c12` [Example 76, (1-(7-(8-ethyl-7-fluoro-3-hydroxynaphthalen-1-yl)-8-fluoro-2-(((2R,7aS)-2-fluorotetrahydro-1H-pyrrolizin-7a(5H)-yl)methoxy)pyrido[4,3-d]pyrimidin-4-yl)piperidin-4-yl)(3-isopropyl-1H-pyrazol-1-yl)methanone], for which the half-inhibitory concentration (IC50) in assay [1] turned out to be 223 nM; in assay [2] it was 4720 nM; in assay [3], 2060 nM; in assay [4] it was 166 nM; in assay [5], 150 nM; in assay [6], 124 nM.

Regarding `CCc1c(F)ccc2cc(O)cc(-c3ncc4c(N5CCOCC(C(=O)n6ccc(C)n6)C5)nc(OC[C@@]56CCCN5C[C@H](F)C6)nc4c3F)c12` (stereo partly drawn) [Example 77, (4-(7-(8-ethyl-7-fluoro-3-hydroxynaphthalen-1-yl)-8-fluoro-2-(((2R,7aS)-2-fluorotetrahydro-1H-pyrrolizin-7a(5H)-yl)methoxy)pyrido[4,3-d]pyrimidin-4-yl)-1,4-oxazepan-6-yl)(3-methyl-1H-pyrazol-1-yl)methanone], the IC50 in assay [1] is greater than 10000 nM; in assay [2], 1360 nM; in assay [3], 4560 nM; in assay [4], 161 nM; in assay [5], 87 nM; in assay [6], 159 nM.

Take `CCc1c(F)ccc2cc(O)cc(-c3ncc4c(N5CC[C@@H](C(=O)n6ccc(C)n6)[C@@H](C)C5)nc(OC[C@@]56CCCN5C[C@H](F)C6)nc4c3F)c12` [Example 79, ((3R,4R)-1-(7-(8-ethyl-7-fluoro-3-hydroxynaphthalen-1-yl)-8-fluoro-2-(((2R,7aS)-2-fluorotetrahydro-1H-pyrrolizin-7a(5H)-yl)methoxy)pyrido[4,3-d]pyrimidin-4-yl)-3-methylpiperidin-4-yl)(3-methyl-1H-pyrazol-1-yl)methanone]: the IC50 in assay [1] is 785 nM; in assay [2], 23 nM; in assay [3], 1450 nM; in assay [4], 246 nM; in assay [5], 594 nM; in assay [6], 26 nM.

On to `CCc1c(F)ccc2cc(O)cc(-c3ncc4c(N5CCC(C(=O)n6cc(C(C)C)cn6)CC5)nc(OC[C@@]56CCCN5C[C@H](F)C6)nc4c3F)c12` [Example 80, (1-(7-(8-ethyl-7-fluoro-3-hydroxynaphthalen-1-yl)-8-fluoro-2-(((2R,7aS)-2-fluorotetrahydro-1H-pyrrolizin-7a(5H)-yl)methoxy)pyrido[4,3-d]pyrimidin-4-yl)piperidin-4-yl)(4-isopropyl-1H-pyrazol-1-yl)methanone], for which the concentration for half-maximal inhibition (IC50) in assay [1] stood at 431 nM; in assay [2], 9700 nM; in assay [3], 3380 nM; in assay [4] it was 432 nM; in assay [5], 197 nM; in assay [6], 307 nM.

In the case of `CCc1c(F)ccc2cc(O)cc(-c3ncc4c(N5C[C@@H](C)N(C(=O)n6ccc(C)n6)[C@@H](C)C5)nc(OC[C@@]56CCCN5C[C@H](F)C6)nc4c3F)c12` [Example 81, ((2S,6R)-4-(7-(8-ethyl-7-fluoro-3-hydroxynaphthalen-1-yl)-8-fluoro-2-(((2R,7aS)-2-fluorotetrahydro-1H-pyrrolizin-7a(5H)-yl)methoxy)pyrido[4,3-d]pyrimidin-4-yl)-2,6-dimethylpiperazin-1-yl)(3-methyl-1H-pyrazol-1-yl)methanone], the concentration for half-maximal inhibition (IC50) in assay [1] is 3770 nM; in assay [2], 2160 nM; in assay [3], 192 nM; in assay [4] it was 32 nM; in assay [5], 93 nM; in assay [6], 165 nM.

For `CCc1c(F)ccc2cc(O)cc(-c3ncc4c(N5CCN(C(=O)n6ccc(C)n6)C(C)C5)nc(OC[C@@]56CCCN5C[C@H](F)C6)nc4c3F)c12` (stereo partly drawn) [Example 82, (4-(7-(8-ethyl-7-fluoro-3-hydroxynaphthalen-1-yl)-8-fluoro-2-(((2R,7aS)-2-fluorotetrahydro-1H-pyrrolizin-7a(5H)-yl)methoxy)pyrido[4,3-d]pyrimidin-4-yl)-2-methylpiperazin-1-yl)(3-methyl-1H-pyrazol-1-yl)methanone], the IC50 in assay [1] was found to be 3410 nM; in assay [2], 499 nM; in assay [3], 179 nM; in assay [4], 23 nM; in assay [5], 28 nM; in assay [6] it was 34 nM.

Regarding `CCc1c(F)ccc2cc(O)cc(-c3ncc4c(N5CCC(C)(C(=O)n6ccc(C)n6)CC5)nc(OC[C@@]56CCCN5C[C@H](F)C6)nc4c3F)c12` [Example 83, (1-(7-(8-ethyl-7-fluoro-3-hydroxynaphthalen-1-yl)-8-fluoro-2-(((2R,7aS)-2-fluorotetrahydro-1H-pyrrolizin-7a(5H)-yl)methoxy)pyrido[4,3-d]pyrimidin-4-yl)-4-methylpiperidin-4-yl)(3-methyl-1H-pyrazol-1-yl)methanone], the IC50 in assay [1] worked out at 1170 nM; in assay [2], 1410 nM; in assay [3], 2990 nM; in assay [4], 790 nM; in assay [5] it was 402 nM; in assay [6], 107 nM.

Regarding `CCc1c(F)ccc2cc(O)cc(-c3ncc4c(N5CC(CC(=O)n6ccc(C)n6)C5)nc(OC[C@@]56CCCN5C[C@H](F)C6)nc4c3F)c12` [Example 84, 2-(1-(7-(8-ethyl-7-fluoro-3-hydroxynaphthalen-1-yl)-8-fluoro-2-(((2R,7aS)-2-fluorotetrahydro-1H-pyrrolizin-7a(5H)-yl)methoxy)pyrido[4,3-d]pyrimidin-4-yl)azetidin-3-yl)-1-(3-methyl-1H-pyrazol-1-yl) ethan-1-one], the half-inhibitory concentration (IC50) in assay [1] is 55 nM; in assay [2], 7600 nM; in assay [3], 6390 nM; in assay [4], 154 nM; in assay [5], 7 nM; in assay [6], 53 nM.

As for `CCc1c(F)ccc2cc(O)cc(-c3ncc4c(N5CC[C@H](C(=O)n6ccc(C)n6)[C@H](C)C5)nc(OC[C@@]56CCCN5C[C@H](F)C6)nc4c3F)c12` [Example 85, ((3S,4S)-1-(7-(8-ethyl-7-fluoro-3-hydroxynaphthalen-1-yl)-8-fluoro-2-(((2R,7aS)-2-fluorotetrahydro-1H-pyrrolizin-7a(5H)-yl)methoxy)pyrido[4,3-d]pyrimidin-4-yl)-3-methylpiperidin-4-yl)(3-methyl-1H-pyrazol-1-yl)methanone], the IC50 is 883 nM in assay [1]; 458 nM in assay [2]; 48 nM in assay [3]; 8 nM in assay [4]; 17 nM in assay [5]; 28 nM in assay [6].

Consider `CCc1c(F)ccc2cc(O)cc(-c3ncc4c(N(C)CCCC(=O)n5ccc(C)n5)nc(OC[C@@]56CCCN5C[C@H](F)C6)nc4c3F)c12` [Example 110, 4-((7-(8-ethyl-7-fluoro-3-hydroxynaphthalen-1-yl)-8-fluoro-2-(((2R,7aS)-2-fluorotetrahydro-1H-pyrrolizin-7a(5H)-yl)methoxy)pyrido[4,3-d]pyrimidin-4-yl)(methyl)amino)-1-(3-methyl-1H-pyrazol-1-yl) butan-1-one], for which the half-inhibitory concentration (IC50) is 12 nM in assay [1]; 91 nM in assay [2]; 1320 nM in assay [3]; 58 nM in assay [4]; less than 2 nM in assay [5]; less than 2 nM in assay [6].
